Assay results as given in patent US10544147B2, “Purine inhibitors of human phosphatidylinositol 3-kinase delta” (MERCK SHARP & DOHME CORP., priority 2016, dated 2020).

How the values were obtained:
PI3Kalpha = PI3Kalpha (Homo sapiens (Human), UniProt P42336); assay: HTRF PI3K biochemical assay, alpha isoform (selectivity versus delta); conditions: ratio PI3K-alpha IC50 value/PI3K-delta IC50 value
Method: (§1) HTRF PI3K Biochemical Assay to Measure Intrinsic Potency of Compound Inhibitors
(§2) This loss of signal is nonlinear with respect to both increasing product and time. This non-linear detection will impact accuracy of IC50 calculations; therefore, there is a need for a correction factor to obtain more accurate IC50 values. This correction is derived from a PIP3 standard curve run in a separate assay plate. All data were calculated using the ratio of acceptor (APC) to donor (Europium) fluorescence in each well of the assay plate. […] An IC50 was then calculated fitting the % inhibition data to the equation: % inhibition=min+(Max−min)/1+([inhibitor]/IC50)^n) where min is the % inhibition with inhibitor, max is the signal in DMSO control, and n is the Hill slope.
(§3) The biological data was collected using the methodology described above.
The determination of relative selectivity for a given compound is defined as the relative ratio of the (PI3K-alphaIC50 value/PI3K-delta IC50 value).

PI3Kdelta = PI3Kdelta (Homo sapiens (Human), UniProt O00329); assay: HTRF PI3K biochemical assay, delta isoform; conditions: 0.3 nM enzyme, 100 uM ATP, 50 uM PIP2; form screened (neutral or TFA salt)
Method: as §1, §2, §3

Sequence of PI3Kalpha (P42336 whole entry, canonical isoform): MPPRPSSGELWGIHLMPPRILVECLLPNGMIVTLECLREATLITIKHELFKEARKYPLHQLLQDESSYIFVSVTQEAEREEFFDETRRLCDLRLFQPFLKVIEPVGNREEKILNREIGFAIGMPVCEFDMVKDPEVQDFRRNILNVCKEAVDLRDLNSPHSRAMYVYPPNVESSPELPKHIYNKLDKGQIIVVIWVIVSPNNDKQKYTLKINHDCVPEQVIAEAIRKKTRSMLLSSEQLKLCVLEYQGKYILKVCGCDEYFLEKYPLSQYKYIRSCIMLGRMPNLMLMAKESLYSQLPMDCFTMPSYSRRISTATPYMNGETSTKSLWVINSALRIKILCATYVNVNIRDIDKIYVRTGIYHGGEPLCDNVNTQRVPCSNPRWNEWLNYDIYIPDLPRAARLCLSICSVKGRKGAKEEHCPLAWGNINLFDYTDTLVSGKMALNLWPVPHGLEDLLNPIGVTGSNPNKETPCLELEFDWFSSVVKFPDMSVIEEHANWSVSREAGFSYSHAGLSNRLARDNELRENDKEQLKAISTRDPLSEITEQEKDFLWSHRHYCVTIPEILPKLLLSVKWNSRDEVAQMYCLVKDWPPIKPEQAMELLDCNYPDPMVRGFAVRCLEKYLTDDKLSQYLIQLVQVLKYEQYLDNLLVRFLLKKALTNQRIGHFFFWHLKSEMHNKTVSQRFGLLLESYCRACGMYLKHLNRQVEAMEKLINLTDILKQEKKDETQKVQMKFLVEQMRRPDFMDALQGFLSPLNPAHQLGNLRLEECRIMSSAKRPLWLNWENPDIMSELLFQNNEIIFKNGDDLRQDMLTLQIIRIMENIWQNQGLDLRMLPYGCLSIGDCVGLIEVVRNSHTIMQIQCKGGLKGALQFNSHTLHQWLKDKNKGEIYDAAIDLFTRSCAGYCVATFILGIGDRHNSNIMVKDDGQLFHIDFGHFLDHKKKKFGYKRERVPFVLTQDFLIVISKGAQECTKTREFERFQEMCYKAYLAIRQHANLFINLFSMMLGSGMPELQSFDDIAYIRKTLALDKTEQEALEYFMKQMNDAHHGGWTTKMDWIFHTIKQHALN
Sequence of PI3Kalpha (P27986 whole entry partner, canonical isoform): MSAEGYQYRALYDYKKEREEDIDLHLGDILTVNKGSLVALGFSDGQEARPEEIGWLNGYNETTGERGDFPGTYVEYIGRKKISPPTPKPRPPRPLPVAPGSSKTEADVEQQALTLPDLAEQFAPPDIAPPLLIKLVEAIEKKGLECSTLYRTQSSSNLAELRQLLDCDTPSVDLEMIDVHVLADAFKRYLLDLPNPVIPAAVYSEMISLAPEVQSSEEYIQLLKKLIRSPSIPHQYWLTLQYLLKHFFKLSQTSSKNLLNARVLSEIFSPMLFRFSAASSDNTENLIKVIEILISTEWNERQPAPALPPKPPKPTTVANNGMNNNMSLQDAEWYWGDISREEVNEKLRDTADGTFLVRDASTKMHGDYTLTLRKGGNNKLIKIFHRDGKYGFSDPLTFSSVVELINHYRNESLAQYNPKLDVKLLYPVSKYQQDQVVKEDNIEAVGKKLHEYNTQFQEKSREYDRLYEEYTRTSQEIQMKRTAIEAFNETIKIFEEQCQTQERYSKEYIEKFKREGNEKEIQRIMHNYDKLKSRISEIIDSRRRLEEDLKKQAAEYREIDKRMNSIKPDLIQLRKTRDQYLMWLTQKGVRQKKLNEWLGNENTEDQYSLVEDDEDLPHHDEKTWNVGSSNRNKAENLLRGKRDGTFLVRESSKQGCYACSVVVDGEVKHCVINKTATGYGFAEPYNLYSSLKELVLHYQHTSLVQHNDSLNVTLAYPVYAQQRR
Sequence of PI3Kdelta (O00329 whole entry, canonical isoform): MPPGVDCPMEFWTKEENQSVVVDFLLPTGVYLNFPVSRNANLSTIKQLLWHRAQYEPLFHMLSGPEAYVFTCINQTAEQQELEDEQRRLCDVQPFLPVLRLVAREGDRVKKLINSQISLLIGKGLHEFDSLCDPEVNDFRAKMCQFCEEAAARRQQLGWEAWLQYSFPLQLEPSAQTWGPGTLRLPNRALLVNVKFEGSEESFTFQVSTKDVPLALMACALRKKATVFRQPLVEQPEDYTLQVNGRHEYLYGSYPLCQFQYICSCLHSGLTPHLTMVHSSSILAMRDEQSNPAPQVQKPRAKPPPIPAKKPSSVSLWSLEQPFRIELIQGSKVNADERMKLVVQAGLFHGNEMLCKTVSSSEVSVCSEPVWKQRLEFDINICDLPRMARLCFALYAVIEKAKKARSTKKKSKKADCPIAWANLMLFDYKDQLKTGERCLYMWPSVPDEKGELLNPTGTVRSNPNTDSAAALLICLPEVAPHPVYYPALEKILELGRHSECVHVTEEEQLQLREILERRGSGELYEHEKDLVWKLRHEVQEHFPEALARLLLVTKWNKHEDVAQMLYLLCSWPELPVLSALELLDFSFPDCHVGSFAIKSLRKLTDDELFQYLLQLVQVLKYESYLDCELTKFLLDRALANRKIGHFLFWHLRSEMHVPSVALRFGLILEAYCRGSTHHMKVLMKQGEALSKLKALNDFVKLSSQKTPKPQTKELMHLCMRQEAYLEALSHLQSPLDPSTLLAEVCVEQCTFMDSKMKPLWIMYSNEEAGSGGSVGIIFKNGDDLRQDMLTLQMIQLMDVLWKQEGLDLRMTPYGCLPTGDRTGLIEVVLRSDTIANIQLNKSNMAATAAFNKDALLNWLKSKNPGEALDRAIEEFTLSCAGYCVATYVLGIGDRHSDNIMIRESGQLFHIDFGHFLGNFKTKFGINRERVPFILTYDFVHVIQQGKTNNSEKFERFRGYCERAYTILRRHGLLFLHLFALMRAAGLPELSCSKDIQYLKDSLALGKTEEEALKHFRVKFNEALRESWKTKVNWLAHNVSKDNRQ
Sequence of PI3Kdelta (P27986 whole entry partner, canonical isoform): as the sequence (P27986 whole entry partner, canonical isoform) above

Row | SMILES | Relative Selectivity versus PI3Kalpha (PI3Kalpha) | IC50 (PI3Kdelta) [nM]
1 | CCn1c(-c2cnc(C)nc2)nc2c(-c3ccc4c(c3)C(C)(CC(C)C)C(=O)N4)ncnc21 (single isomer, unassigned) [Compound 1-1, 5-(9-Ethyl-8-(2-methylpyrimidin-5-yl)-9H-purin-6-yl)-3-isobutyl-3-methylindolin-2-one] | >10 | 4
2 | CCn1c(-c2cnc(C)nc2)nc2c(-c3ccc4c(c3)C(C)(CC(C)(C)O)C(=O)N4)ncnc21 (single isomer, unassigned) [Compound 1-41, 5-(9-Ethyl-8-(2-methylpyrimidin-5-yl)-9H-purin-6-yl)-3-(2-hydroxy-2-methylpropyl)-3-methylindolin-2-one] | >10 | 23
3 | CCn1c(-c2cnc(C)nc2)nc2c(-c3ccc4c(c3)C(C)(NC(C)C)C(=O)N4)ncnc21 (single isomer, unassigned) [Compound 2-32, (R or S)-5-[9-ethyl-8-(2-methylpyrimidin-5-yl)-9H-purin-6-yl]-3-methyl-3-[(1-methylethyl)amino]-1,3-dihydro-2H-indol-2-one] | >10 | 27
4 | CCn1c(-c2cnc(C)nc2)nc2c(-c3ccc4c(c3)C(C)(NCC3CC3)C(=O)N4)ncnc21 (single isomer, unassigned) [Compound 2-34, (R or S)-3-[(cyclopropylmethyl)amino]-5-[9-ethyl-8-(2-methylpyrimidin-5-yl)-9H-purin-6-yl]-3-methyl-1,3-dihydro-2H-indol-2-one] | >10 | 29
5 | CCn1c(-c2cnc(C)nc2)nc2c(-c3ccc4c(c3)C(C)(CC3CC3)C(=O)N4C)ncnc21 (single isomer, unassigned) [Compound 1-9, 3-(Cyclopropylmethyl)-5-(9-ethyl-8-(2-methylpyrimidin-5-yl)-9H-purin-6-yl)-1,3-dimethylindolin-2-one] | >10 | 17
6 | Cc1ncc(-c2nc3c(-c4cnc5c(c4)C(C)(CC(C)C)C(=O)N5)ncnc3n2C)cn1 (single isomer, unassigned) [Compound 1-27, (R or S)-3-isobutyl-3-methyl-5-(9-methyl-8-(2-methylpyrimidin-5-yl)-9H-purin-6-yl)-1,3-dihydro-2H-pyrrolo[2,3-b]pyridin-2-one] | >10 | 5
7 | CCn1c(-c2cnc(C)nc2)nc2c(-c3ccc4c(c3)C(C)(N3CC5(CCO5)C3)C(=O)N4)ncnc21 (single isomer, unassigned) [Compound 2-7, (R or S)-5-[9-ethyl-8-(2-methylpyrimidin-5-yl)-9H-purin-6-yl]-3-methyl-3-(1-oxa-6-azaspiro[3.3]hept-6-yl)-1,3-dihydro-2H-indol-2-one] | >10 | 8
8 | CCn1c(-c2cnc(C)nc2)nc2c(-c3ccc4c(c3)C(C)(N3CC(C)(C#N)C3)C(=O)N4)ncnc21 (single isomer, unassigned) [Compound 2-5, (R or S)-1-{5-[9-ethyl-8-(2-methylpyrimidin-5-yl)-9H-purin-6-yl]-3-methyl-2-oxo-2,3-dihydro-1H-indol-3-yl}-3-methylazetidine-3-carbonitrile] | >10 | 73
9 | CCn1c(-c2cnc(C)nc2)nc2c(-c3ccc4c(c3)C(C)(NCC3(F)COC3)C(=O)N4)ncnc21 (single isomer, unassigned) [Compound 2-72, (R or S)-5-(9-ethyl-8-(2-methylpyrimidin-5-yl)-9H-purin-6-yl)-3-(((3-fluorooxetan-3-yl)methyl)amino)-3-methylindolin-2-one] | >10 | 3
10 | CCn1c(-c2cnc(C)nc2)nc2c(-c3ccc4c(c3)C(C)(N3CC(C)(F)C3)C(=O)N4)ncnc21 (single isomer, unassigned) [Compound 2-63, (R or S)-5-(9-ethyl-8-(2-methylpyrimidin-5-yl)-9H-purin-6-yl)-3-(3-fluoro-3-methylazetidin-1-yl)-3-methylindolin-2-one] | >10 | 87
11 | Cc1ncc(-c2nc3c(-c4cnc5c(c4)C(C)(NCC(C)(C)F)C(=O)N5)ncnc3n2C)cn1 (single isomer, unassigned) [Compound 2-60, (S or R)-5-(9-methyl-8-(2-methylpyrimidin-5-yl)-9H-purin-6-yl)-3-((2-fluoro-2-methylpropyl)amino)-3-methyl-1H-pyrrolo[2,3-b]pyridin-2(3H)-one] | 8 | 133
12 | Cc1ncc(-c2nc3c(-c4ccc5c(c4)C(C)(NCC(C)(C)F)C(=O)N5)ncnc3n2C)cn1 (single isomer, unassigned) [Compound 2-67, (R or S)-3-((2-fluoro-2-methylpropyl)amino)-3-methyl-5-(9-methyl-8-(2-methylpyrimidin-5-yl)-9H-purin-6-yl)indolin-2-one] | >10 | 344
13 | CCn1c(-c2cnc(C)nc2)nc2c(-c3ccc4c(c3)C(C)(CC)C(=O)N4)ncnc21 (single isomer, unassigned) [Compound 1-38, (R or S)-3-ethyl-5-(9-ethyl-8-(2-methylpyrimidin-5-yl)-9H-purin-6-yl)-3-methylindolin-2-one] | >10 | 80
14 | CCn1c(-c2cnc(C)nc2)nc2c(-c3ccc4c(c3)C(C)(NCC(C)C)C(=O)N4)ncnc21 (single isomer, unassigned) [Compound 2-65, (R or S)-5-(9-ethyl-8-(2-methylpyrimidin-5-yl)-9H-purin-6-yl)-3-(isobutylamino)-3-methylindolin-2-one] | >10 | 79

The remaining lines, values ahead:

Row | Relative Selectivity versus PI3Kalpha (PI3Kalpha) | IC50 (PI3Kdelta) [nM] | SMILES
15 | >10 | 5 | CCn1c(C(F)F)nc2c(-c3ccc4c(c3)C3(CCCN3C(=O)C3CC3)C(=O)N4)ncnc21 (single isomer, unassigned) [Compound 3-15, (R or S)-1′-(cyclopropanecarbonyl)-5-(8-(difluoromethyl)-9-ethyl-9H-purin-6-yl)spiro[indoline-3,2′-pyrrolidin]-2-one]
16 | >10 | 169 | CCn1c(-c2cnc(C)nc2)nc2c(-c3ccc4c(c3)C3(CCCN3)C(=O)N4)ncnc21 (single isomer, unassigned) [Compound 3-32, (R or S)-5-(9-ethyl-8-(2-methylpyrimidin-5-yl)-9H-purin-6-yl)spiro[indoline-3,2′-pyrrolidin]-2-one]
17 | >10 | 2 | Cc1ncc(-c2nc3c(-c4ccc5c(c4)C4(CCCN4C(C)C)C(=O)N5)ncnc3n2C)cn1 (single isomer, unassigned) [Compound 3-14, (R or S)-1′-isopropyl-5-(9-methyl-8-(2-methylpyrimidin-5-yl)-9H-purin-6-yl)spiro[indoline-3,2′-pyrrolidin]-2-one]
18 | >10 | 15 | CCN1CCCC12C(=O)Nc1ccc(-c3ncnc4c3nc(-c3cnc(C)nc3)n4C)cc12 (single isomer, unassigned) [Compound 3-29, (R or S)-1′-ethyl-5-(9-methyl-8-(2-methylpyrimidin-5-yl)-9H-purin-6-yl)spiro[indoline-3,2′-pyrrolidin]-2-one]
19 | >10 | 1.9 | Cc1ncc(-c2nc3c(-c4ccc5c(c4)C4(CCCN4C(=O)C4CC4)C(=O)N5CCO)ncnc3n2C)cn1 (single isomer, unassigned) [Compound 3-18, (R or S)-1′-(cyclopropanecarbonyl)-1-(2-hydroxyethyl)-5-(9-methyl-8-(2-methylpyrimidin-5-yl)-9H-purin-6-yl)spiro[indoline-3,2′-pyrrolidin]-2-one]
20 | >10 | 35 | CCn1c(-c2cnc(C)nc2)nc2c(-c3ccc4c(c3)C(Cc3ccccc3)OC(=O)N4)ncnc21 (single isomer, unassigned) [Compound 4-2, (R or S)-4-benzyl-6-[9-ethyl-8-(2-methylpyrimidin-5-yl)-9H-purin-6-yl]-1,4-dihydro-2H-3,1-benzoxazin-2-one]
21 | >10 | 5 | CCN1C(=O)C2(CCCN2C(=O)C2CC2)c2cc(-c3ncnc4c3nc(-c3cnc(C)nc3)n4CC)ccc21 (single isomer, unassigned) [Compound 3-9, (R or S)-1′-(cyclopropanecarbonyl)-1-ethyl-5-(9-ethyl-8-(2-methylpyrimidin-5-yl)-9H-purin-6-yl)spiro[indoline-3,2′-pyrrolidin]-2-one]
22 | >10 | 4 | CCn1c(-c2cnc(C)nc2)nc2c(-c3ccc4c(c3)C(C)(CC(C)C)OC(=O)N4)ncnc21 (single isomer, unassigned) [Compound 4-4, (R or S)-6-[9-ethyl-8-(2-methylpyrimidin-5-yl)-9H-purin-6-yl]-4-methyl-4-(2-methylpropyl)-1,4-dihydro-2H-3,1-benzoxazin-2-one]
23 | >10 | 0.7 | CCn1c(-c2cnc(C)nc2)nc2c(-c3ccc4c(c3)C3(CCCN3S(C)(=O)=O)C(=O)N4)ncnc21 (single isomer, unassigned) [Compound 3-19, (R or S)-5-(9-ethyl-8-(2-methylpyrimidin-5-yl)-9H-purin-6-yl)-1′-(methylsulfonyl)spiro[indoline-3,2′-pyrrolidin]-2-one]
